# Assay results published in ChEMBL document CHEMBL1268897, “Discovery and optimization of adamantyl carbamate inhibitors of 11β-HSD1” (Bioorg Med Chem Lett, 2010).
# Experiments:
# [1] = in vitro; settings: rat, liver microsomes
# [2] = molecular target: Cytochrome P450 2D6 (Homo sapiens, UniProt P10635); assay: Inhibition of CYP2D6; type: ADME
# [3] = molecular target: Cytochrome P450 3A4 (Homo sapiens, UniProt P08684); assay: Inhibition of CYP3A4; type: ADME
# [4] = molecular target: Cytochrome P450 2C9 (Homo sapiens, UniProt P11712); assay: Inhibition of CYP2C9; type: ADME
# Sequence of Cytochrome P450 2C9 (P11712 whole entry): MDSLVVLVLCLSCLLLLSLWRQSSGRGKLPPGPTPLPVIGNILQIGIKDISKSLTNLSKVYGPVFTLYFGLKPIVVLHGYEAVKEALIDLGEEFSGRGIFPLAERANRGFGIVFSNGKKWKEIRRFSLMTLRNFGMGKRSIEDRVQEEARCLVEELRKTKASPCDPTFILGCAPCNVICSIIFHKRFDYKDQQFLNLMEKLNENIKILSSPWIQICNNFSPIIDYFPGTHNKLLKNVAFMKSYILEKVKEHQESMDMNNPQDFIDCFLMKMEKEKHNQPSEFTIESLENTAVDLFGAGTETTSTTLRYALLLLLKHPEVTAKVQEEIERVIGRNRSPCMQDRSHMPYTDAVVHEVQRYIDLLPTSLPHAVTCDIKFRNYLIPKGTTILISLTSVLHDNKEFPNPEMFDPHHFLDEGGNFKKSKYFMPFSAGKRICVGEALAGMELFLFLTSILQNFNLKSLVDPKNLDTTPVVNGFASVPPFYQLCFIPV
# [5] = molecular target: T1, 11-beta-hydroxysteroid dehydrogenase type 2 (Homo sapiens, UniProt P80365); assay: Inhibition of 11betaHSD2
# T1 sequence (P80365 whole entry): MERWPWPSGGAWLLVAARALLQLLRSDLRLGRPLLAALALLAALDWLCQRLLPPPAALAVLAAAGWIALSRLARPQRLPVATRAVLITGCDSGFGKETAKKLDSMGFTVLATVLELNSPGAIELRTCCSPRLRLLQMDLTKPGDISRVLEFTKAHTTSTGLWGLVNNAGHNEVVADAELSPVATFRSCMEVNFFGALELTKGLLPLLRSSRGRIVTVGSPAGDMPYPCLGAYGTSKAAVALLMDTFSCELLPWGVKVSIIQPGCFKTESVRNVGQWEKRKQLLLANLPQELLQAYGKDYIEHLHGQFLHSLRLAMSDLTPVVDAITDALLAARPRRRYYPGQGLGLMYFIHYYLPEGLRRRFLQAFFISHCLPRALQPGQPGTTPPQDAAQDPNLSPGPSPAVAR
# [6] = molecular target: T2, 3 beta-hydroxysteroid dehydrogenase/Delta 5-->4-isomerase type 2 (Homo sapiens, UniProt P26439); assay: Inhibition of 3betaHSD2
# T2 sequence (P26439 whole entry): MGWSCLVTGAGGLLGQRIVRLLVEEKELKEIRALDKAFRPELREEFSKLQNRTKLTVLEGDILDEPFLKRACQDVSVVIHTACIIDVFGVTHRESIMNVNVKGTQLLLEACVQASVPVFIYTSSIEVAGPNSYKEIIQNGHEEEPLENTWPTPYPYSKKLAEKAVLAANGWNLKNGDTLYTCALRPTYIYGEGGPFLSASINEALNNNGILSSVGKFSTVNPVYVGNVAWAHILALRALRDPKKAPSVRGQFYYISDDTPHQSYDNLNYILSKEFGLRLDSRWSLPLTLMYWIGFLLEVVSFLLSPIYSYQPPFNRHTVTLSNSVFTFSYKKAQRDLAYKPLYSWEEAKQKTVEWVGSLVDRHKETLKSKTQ
# [7] = molecular target: T3, 11-beta-hydroxysteroid dehydrogenase 1 (Homo sapiens, UniProt P28845); assay: Inhibition of 11betaHSD1 in human platelet assessed as [3H]-cortisone to [3H]-cortisol by microscintillation plate reader
# T3 sequence (P28845 whole entry): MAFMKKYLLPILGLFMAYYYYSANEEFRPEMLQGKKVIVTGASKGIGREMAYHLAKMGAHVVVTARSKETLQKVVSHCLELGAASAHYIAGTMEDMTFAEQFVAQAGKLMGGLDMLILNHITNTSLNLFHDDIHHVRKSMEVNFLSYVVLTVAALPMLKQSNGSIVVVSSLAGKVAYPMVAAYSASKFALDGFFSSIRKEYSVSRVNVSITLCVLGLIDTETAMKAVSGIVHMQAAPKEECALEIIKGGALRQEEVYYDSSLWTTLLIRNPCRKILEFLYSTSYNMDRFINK
# [8] = molecular target: T3, 11-beta-hydroxysteroid dehydrogenase 1; assay: Inhibition of recombinant 11betaHSD1 expressed in CHO cells assessed as [3H]-cortisone to [3H]-cortisol by microscintillation plate reader; type: cell-based
# [9] = molecular target: 17-beta-hydroxysteroid dehydrogenase type 1 (Homo sapiens) (UniProt P14061); assay: Inhibition of 17betaHSD1
# Sequence of 17-beta-hydroxysteroid dehydrogenase type 1 (Homo sapiens) (P14061 whole entry, looked up): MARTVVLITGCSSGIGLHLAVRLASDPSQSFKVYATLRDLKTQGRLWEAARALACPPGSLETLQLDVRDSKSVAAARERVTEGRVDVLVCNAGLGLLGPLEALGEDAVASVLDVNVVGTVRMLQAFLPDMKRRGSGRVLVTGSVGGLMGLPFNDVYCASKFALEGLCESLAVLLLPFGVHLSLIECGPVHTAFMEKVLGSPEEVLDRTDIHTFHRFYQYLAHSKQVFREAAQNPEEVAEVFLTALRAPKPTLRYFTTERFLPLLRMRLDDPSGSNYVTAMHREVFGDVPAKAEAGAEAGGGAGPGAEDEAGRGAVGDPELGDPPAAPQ
# [10] = Clearance in rat at 1 umol/kg, iv and 5 umol/kg, po; settings: in vivo
# [11] = AUC in rat at 1 umol/kg, iv and 5 umol/kg, po; settings: plasma
# [12] = molecular target: T3, 11-beta-hydroxysteroid dehydrogenase 1; assay: Inhibition of recombinant 11betaHSD1 expressed in CHO cells assessed as [3H]-cortisone to [3H]-cortisol by microscintillation plate reader in presence of plasma; type: cell-based
# [13] = Mean residence time in rat at 1 umol/kg, iv and 5 umol/kg, po; settings: in vivo
# [14] = in vitro; settings: rat, hepatocytes
# Description: Metabolic stability in rat hepatocytes assessed as hepatic clearance
# [15] = Oral bioavailability in rat at 1 umol/kg, iv and 5 umol/kg, po; settings: in vivo
# [16] = test system: Rattus norvegicus; assay: Volume of distribution in rat at 1 umol/kg, iv and 5 umol/kg, po; settings: in vivo
# [17] = molecular target: T4, Bile acid receptor (Homo sapiens, UniProt Q96RI1); assay: Activity against FXR
# T4 sequence (Q96RI1 whole entry): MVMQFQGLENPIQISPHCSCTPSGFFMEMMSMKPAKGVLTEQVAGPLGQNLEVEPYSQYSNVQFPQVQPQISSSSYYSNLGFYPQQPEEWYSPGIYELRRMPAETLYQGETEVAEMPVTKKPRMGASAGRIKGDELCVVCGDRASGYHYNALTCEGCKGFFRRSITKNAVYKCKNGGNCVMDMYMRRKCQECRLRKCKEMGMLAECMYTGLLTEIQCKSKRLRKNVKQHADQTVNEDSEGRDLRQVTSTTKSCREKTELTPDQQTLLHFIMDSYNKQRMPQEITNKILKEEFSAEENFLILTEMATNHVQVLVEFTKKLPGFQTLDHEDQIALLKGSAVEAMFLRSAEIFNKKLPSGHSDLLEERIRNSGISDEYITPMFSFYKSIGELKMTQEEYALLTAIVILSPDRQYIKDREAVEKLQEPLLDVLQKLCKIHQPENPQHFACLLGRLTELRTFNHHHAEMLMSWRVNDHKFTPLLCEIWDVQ
# [18] = molecular target: T5, Glucocorticoid receptor (Homo sapiens, UniProt P04150); assay: Activity against GR
# T5 sequence (P04150 whole entry): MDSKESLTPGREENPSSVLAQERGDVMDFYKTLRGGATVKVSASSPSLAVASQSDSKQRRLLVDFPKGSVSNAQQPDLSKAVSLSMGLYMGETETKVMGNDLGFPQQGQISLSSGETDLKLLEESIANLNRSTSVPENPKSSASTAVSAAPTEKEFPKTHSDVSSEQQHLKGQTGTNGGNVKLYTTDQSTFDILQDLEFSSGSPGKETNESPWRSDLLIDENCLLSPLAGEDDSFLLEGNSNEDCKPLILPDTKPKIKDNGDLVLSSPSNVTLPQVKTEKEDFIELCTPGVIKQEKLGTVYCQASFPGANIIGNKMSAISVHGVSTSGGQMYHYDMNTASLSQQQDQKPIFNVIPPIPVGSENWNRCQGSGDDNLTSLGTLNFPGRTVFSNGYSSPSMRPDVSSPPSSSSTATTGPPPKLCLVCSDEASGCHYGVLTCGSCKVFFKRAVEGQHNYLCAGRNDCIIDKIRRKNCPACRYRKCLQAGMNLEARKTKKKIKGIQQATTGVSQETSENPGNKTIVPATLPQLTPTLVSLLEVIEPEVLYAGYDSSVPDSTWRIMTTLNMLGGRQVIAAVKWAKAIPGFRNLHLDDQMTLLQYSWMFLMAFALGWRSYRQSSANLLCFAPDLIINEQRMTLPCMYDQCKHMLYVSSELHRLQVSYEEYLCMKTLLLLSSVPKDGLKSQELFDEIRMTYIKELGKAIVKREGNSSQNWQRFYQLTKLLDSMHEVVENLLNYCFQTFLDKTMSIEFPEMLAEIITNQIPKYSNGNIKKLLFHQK
# Sequence of Cytochrome P450 2D6 (P10635 whole entry): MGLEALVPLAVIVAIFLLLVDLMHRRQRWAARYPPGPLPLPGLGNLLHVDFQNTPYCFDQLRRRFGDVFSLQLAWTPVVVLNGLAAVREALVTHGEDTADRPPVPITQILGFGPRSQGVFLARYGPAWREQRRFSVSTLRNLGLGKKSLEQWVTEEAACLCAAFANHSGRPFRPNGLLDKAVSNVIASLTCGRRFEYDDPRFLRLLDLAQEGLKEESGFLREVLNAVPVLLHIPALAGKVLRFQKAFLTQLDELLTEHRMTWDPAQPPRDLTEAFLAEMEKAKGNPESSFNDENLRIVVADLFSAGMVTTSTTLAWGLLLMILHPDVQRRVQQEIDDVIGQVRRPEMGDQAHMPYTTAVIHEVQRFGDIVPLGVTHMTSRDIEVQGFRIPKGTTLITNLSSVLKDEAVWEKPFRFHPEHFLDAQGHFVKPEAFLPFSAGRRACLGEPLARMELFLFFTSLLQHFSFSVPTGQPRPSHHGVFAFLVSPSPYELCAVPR
# Sequence of Cytochrome P450 3A4 (P08684 whole entry): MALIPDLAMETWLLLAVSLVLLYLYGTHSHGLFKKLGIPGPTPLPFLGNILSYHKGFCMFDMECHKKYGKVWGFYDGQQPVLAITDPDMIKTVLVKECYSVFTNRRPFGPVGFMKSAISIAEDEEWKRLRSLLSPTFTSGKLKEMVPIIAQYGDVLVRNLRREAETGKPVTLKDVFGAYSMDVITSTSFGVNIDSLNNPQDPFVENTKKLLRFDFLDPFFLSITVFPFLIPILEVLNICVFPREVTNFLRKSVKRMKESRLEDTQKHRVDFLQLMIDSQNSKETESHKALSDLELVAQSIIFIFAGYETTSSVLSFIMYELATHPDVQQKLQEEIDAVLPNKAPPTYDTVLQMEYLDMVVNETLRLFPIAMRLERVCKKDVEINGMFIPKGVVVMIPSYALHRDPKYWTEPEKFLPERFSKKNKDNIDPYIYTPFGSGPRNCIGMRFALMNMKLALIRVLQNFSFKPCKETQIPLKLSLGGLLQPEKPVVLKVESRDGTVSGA
SMILES,half-life [1] [min],IC50 [2] [µM],IC50 [3] [µM],IC50 [4] [µM],IC50 [7] [µM],IC50 [8] [µM],also measured
O=C(OC1C2CC3CC(C2)CC1C3)N1CCCCC1 (centres undefined),2,–,–,–,–,–,–
NC(=O)[C@]12CC3CC(C1)[C@@H](OC(=O)N1CC[C@H](Nc4ccc(C(F)(F)F)cn4)C1)C(C3)C2,> 60,11.6,10.3,2.4,–,–,–
N#Cc1cccnc1N[C@@H]1CCN(C(=O)O[C@H]2C3CC4CC2C[C@](C(N)=O)(C4)C3)C1,> 60,> 30,17.1,> 30,0.0004,0.00087,IC50 [5]: 7.35 µM; IC50 [6]: > 10 µM; IC50 [9]: > 10 µM; clearance [10]: 42 mL/min/kg; AUC [11]: 0.398 µM·h; IC50 [12]: 0.0024 µM; MRT [13]: 18 min; CLhep predicted [14]: 41 mL/min/kg; bioavailability [15]: 42%; Vd [16]: 0.7 L/kg
N#Cc1ccc(N[C@@H]2CCN(C(=O)O[C@H]3C4CC5CC3C[C@](C(N)=O)(C5)C4)C2)nc1,46,25,14.2,23.1,0.0027,0.0015,IC50 [5]: 8.65 µM; IC50 [6]: > 10 µM; IC50 [9]: > 10 µM; clearance [10]: 80 mL/min/kg; AUC [11]: 0.209 µM·h; IC50 [12]: 0.0032 µM; MRT [13]: 30 min; CLhep predicted [14]: 33 mL/min/kg; bioavailability [15]: 27%; Vd [16]: 2.2 L/kg
N#Cc1cccnc1N[C@H]1CCN(C(=O)O[C@H]2C3CC4CC2C[C@](C(N)=O)(C4)C3)C1,25,> 30,18.6,> 30,0.0076,0.0026,–
N#Cc1ccc(N[C@H]2CCN(C(=O)O[C@H]3C4CC5CC3C[C@](C(N)=O)(C5)C4)C2)nc1,25,16.6,26.6,20,0.0052,0.0017,–
CC(C)(C)OC(=O)N[C@@H]1CCN(C(=O)OC2C3CC4CC(C3)CC2C4)C1 (some centres undefined),2,> 30,> 30,11.4,–,–,–
CC(C)(C)CC(=O)N[C@@H]1CCN(C(=O)OC2C3CC4CC(C3)CC2C4)C1 (some centres undefined),–,–,–,–,–,0.068,–
CC(C)(C)OC(=O)N[C@@H]1CCN(C(=O)O[C@H]2C3CC4CC2C[C@](C(C)(C)O)(C4)C3)C1,–,–,–,–,> 0.1,0.098,–
CC(C)(C)OC(=O)N[C@@H]1CCN(C(=O)O[C@H]2C3CC4CC2C[C@](C(N)=O)(C4)C3)C1,30,> 30,> 30,> 30,0.0075,0.0034,EC50 [17]: > 10 µM; EC50 [18]: > 10 µM
CC(C)(C)OC(=O)N[C@H]1CCN(C(=O)O[C@H]2C3CC4CC2C[C@](C(N)=O)(C4)C3)C1,–,–,–,–,0.0176,0.0044,–
Cc1cc(N[C@@H]2CCN(C(=O)O[C@H]3C4CC5CC3C[C@](C(N)=O)(C5)C4)C2)nc(C)n1,–,–,–,–,> 0.1,0.0207,–
NC(=O)[C@]12CC3CC(C1)[C@@H](OC(=O)N1CC[C@@H](Nc4nnc(C(F)(F)F)s4)C1)C(C3)C2,–,–,–,–,> 0.1,0.0213,–
NC(=O)[C@]12CC3CC(C1)[C@@H](OC(=O)N1CC[C@@H](Nc4ncccc4C(F)(F)F)C1)C(C3)C2,30,–,3.3,9.4,–,–,–
NC(=O)[C@]12CC3CC(C1)[C@@H](OC(=O)N1CC[C@@H](Nc4ccc(C(F)(F)F)cn4)C1)C(C3)C2,47,11.6,7.2,4.1,–,–,–
NC(=O)[C@]12CC3CC(C1)[C@@H](OC(=O)N1CC[C@@H](Nc4cccc(C(F)(F)F)n4)C1)C(C3)C2,7,5.9,4.8,2.4,–,–,–
NC(=O)[C@]12CC3CC(C1)[C@H](OC(=O)N1CC[C@H](Nc4ncccc4C(F)(F)F)C1)C(C3)C2,11,> 30,8.5,8,–,–,–
OC1C2CC3CC(C2)CC1C3 (centres undefined) [ADAMANTAN-2-OL],2,> 30,> 30,22,–,–,–
